Data as given in ChEMBL document CHEMBL1201862, “PubChem BioAssay data set” (2004).
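Assay format: 96-well plates, 48-hour exposure. GI50 = concentration required for 50% inhibition of growth.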 Active and inactive are the calls of the source. No stated cut-off is given here; in the data, active = GI50 up to about 1.1 µM and inactive = higher.

Tests used:
Assay in all cases: NCI tumour cell line growth inhibition, 48 h
[1] = test system: 786-0
[2] = test system: A549
[3] = test system: ACHN
[4] = test system: CCRF-CEM
[5] = test system: COLO 205
[6] = test system: DLD-1
[7] = test system: DMS-114
[8] = test system: DMS-273
[9] = test system: EKVX
[10] = test system: HCC 2998
[11] = test system: HCT-116
[12] = test system: HL-60
[13] = test system: HOP-62
[14] = test system: HOP-92
[15] = test system: HT-29
[16] = test system: IGROV-1
[17] = test system: K562
[18] = test system: KM-20L2
[19] = test system: KM12
[20] = test system: LOX IMVI
[21] = test system: LXFL 529
[22] = test system: M14
[23] = test system: M19-MEL
[24] = test system: MOLT-4
[25] = test system: Malme-3M
[26] = test system: NCI-H226
[27] = test system: NCI-H23
[28] = test system: NCI-H460
[29] = test system: NCI-H522
[30] = test system: OVCAR-3
[31] = test system: OVCAR-5
[32] = test system: OVCAR-8
[33] = test system: RPMI-8226
[34] = test system: RXF 393
[35] = test system: RXF 631
[36] = test system: SF-268
[37] = test system: SF-295
[38] = test system: SF-539
[39] = test system: SK-MEL-28
[40] = test system: SK-MEL-2
[41] = test system: SK-MEL-5
[42] = test system: SK-OV-3
[43] = test system: SNB-75
[44] = test system: SNB-78
[45] = test system: SW-620
[46] = test system: TK-10
[47] = test system: U-251
[48] = test system: UACC-257
[49] = test system: UACC-62
[50] = test system: UO-31
[51] = test system: XF498
[52] = test system: DU-145
[53] = test system: HOP-18
[54] = test system: MCF7
[55] = test system: MDA-MB-435
[56] = test system: NCI/ADR-RES
[57] = test system: OVCAR-4
[58] = test system: T47D
[59] = test system: A498
[60] = test system: CAKI-1
[61] = test system: HCT-15
[62] = test system: SN12C
[63] = test system: SNB-19

In the case of C/C(=N\NC(=O)C[N+](C)(C)C)c1sc(-c2cccnc2)nc1C, the GI50 [1] is reported as > 100 µM (inactive), the GI50 [2] is reported as > 100 µM (inactive) and the GI50 [3] is reported as > 100 µM (inactive). The GI50 [4] was > 100 µM (inactive), the GI50 [5] was > 100 µM (inactive) and the GI50 [6] was > 100 µM (inactive). The GI50 [7] was > 100 µM (inactive), the GI50 [8] was > 100 µM (inactive) and the GI50 [9] was > 100 µM (inactive). For the same molecule, the GI50 [10] was > 100 µM (inactive), the GI50 [11] was > 100 µM (inactive) and the GI50 [12] was > 100 µM (inactive). The GI50 [13] was > 100 µM (inactive), the GI50 [14] was 24.9 µM (inactive) and the GI50 [15] was > 100 µM (inactive). The GI50 [16] was > 100 µM (inactive), the GI50 [17] was > 100 µM (inactive) and the GI50 [18] was > 100 µM (inactive). For the same molecule, the GI50 [19] was > 100 µM (inactive), the GI50 [20] was > 100 µM (inactive) and the GI50 [21] was 67 µM (inactive). For the same molecule, the GI50 [22] was > 100 µM (inactive), the GI50 [23] was > 100 µM (inactive) and the GI50 [24] was > 100 µM (inactive). The GI50 [25] was > 100 µM (inactive), the GI50 [26] was > 100 µM (inactive) and the GI50 [27] was > 100 µM (inactive). The GI50 [28] was > 100 µM (inactive), the GI50 [29] was 42.7 µM (inactive) and the GI50 [30] was > 100 µM (inactive). For the same molecule, the GI50 [31] was > 100 µM (inactive), the GI50 [32] was > 100 µM (inactive) and the GI50 [33] was > 100 µM (inactive). For the same molecule, the GI50 [34] was 52.1 µM (inactive), the GI50 [35] was > 100 µM (inactive) and the GI50 [36] was > 100 µM (inactive). For the same molecule, the GI50 [37] was > 100 µM (inactive), the GI50 [38] was > 100 µM (inactive) and the GI50 [39] was > 100 µM (inactive). The GI50 [40] was > 100 µM (inactive), the GI50 [41] was > 100 µM (inactive) and the GI50 [42] was > 100 µM (inactive). The GI50 [43] was > 100 µM (inactive), the GI50 [44] was > 100 µM (inactive) and the GI50 [45] was > 100 µM (inactive). The GI50 [46] was > 100 µM (inactive), the GI50 [47] was > 100 µM (inactive) and the GI50 [48] was > 100 µM (inactive). For the same molecule, the GI50 [49] was > 100 µM (inactive), the GI50 [50] was 41.2 µM (inactive) and the GI50 [51] was > 100 µM (inactive).
In the case of COc1cc2c(c(OC)c1OC)-c1ccc(OC)c(=O)cc1[C@@H](NC(C)=O)CC2 [COLCHICINE], the GI50 [6] is reported as 0.0625 µM (active), the GI50 [52] is reported as 0.659 µM (active) and the GI50 [9] is reported as 49 µM (inactive). The GI50 [11] was 0.0168 µM (active), the GI50 [12] was < 0.0625 µM (active) and the GI50 [53] was > 68.9 µM (inactive). The GI50 [17] was 0.0135 µM (active), the GI50 [18] was < 0.0625 µM (active) and the GI50 [54] was 0.0625 µM (active). The GI50 [55] was < 0.01 µM (active), the GI50 [24] was 0.0237 µM (active) and the GI50 [29] was 0.0119 µM (active). The GI50 [56] was 0.845 µM (active), the GI50 [57] was 12.9 µM (inactive) and the GI50 [31] was 7.18 µM (inactive). The GI50 [35] was 0.0363 µM (active), the GI50 [58] was > 78.3 µM (inactive) and the GI50 [46] was 23.7 µM (inactive). For the same molecule, the GI50 [50] was 0.56 µM (active).
With Cc1c(Cl)ccc2c1NC(=O)C2(O)CC(=O)c1ccc2ccccc2c1 (stereo not drawn) the GI50 [1] was 29 µM (inactive), the GI50 [59] was > 100 µM (inactive) and the GI50 [2] was 53.3 µM (inactive). For the same molecule, the GI50 [3] was 58.9 µM (inactive), the GI50 [60] was 42 µM (inactive) and the GI50 [4] was 29 µM (inactive). For the same molecule, the GI50 [5] was 85.3 µM (inactive), the GI50 [6] was 79.8 µM (inactive) and the GI50 [7] was 21.1 µM (inactive). For the same molecule, the GI50 [9] was 84.7 µM (inactive), the GI50 [10] was > 100 µM (inactive) and the GI50 [11] was 48.5 µM (inactive). For the same molecule, the GI50 [61] was 41.1 µM, the GI50 [53] was > 100 µM (inactive) and the GI50 [13] was > 100 µM (inactive). For the same molecule, the GI50 [14] was 44 µM (inactive), the GI50 [15] was 39.6 µM (inactive) and the GI50 [16] was 37.5 µM (inactive). For the same molecule, the GI50 [17] was 28.6 µM (inactive), the GI50 [18] was 69 µM (inactive) and the GI50 [19] was 37.2 µM (inactive). For the same molecule, the GI50 [20] was 44.7 µM (inactive), the GI50 [22] was 86.1 µM (inactive) and the GI50 [24] was 18.6 µM (inactive). For the same molecule, the GI50 [25] was > 100 µM (inactive), the GI50 [26] was 24.4 µM (inactive) and the GI50 [27] was 28.2 µM (inactive). The GI50 [28] was 67.1 µM (inactive), the GI50 [29] was 24.7 µM (inactive) and the GI50 [30] was 33.4 µM (inactive). For the same molecule, the GI50 [57] was 46.9 µM (inactive), the GI50 [31] was > 100 µM (inactive) and the GI50 [32] was 55.2 µM (inactive). For the same molecule, the GI50 [33] was 19.1 µM (inactive), the GI50 [34] was 16 µM (inactive) and the GI50 [35] was 57.1 µM (inactive). The GI50 [36] was 32.1 µM (inactive), the GI50 [37] was 88.3 µM (inactive) and the GI50 [38] was 49.8 µM (inactive). For the same molecule, the GI50 [39] was 48.2 µM (inactive), the GI50 [40] was > 100 µM (inactive) and the GI50 [41] was > 10 µM (inactive). The GI50 [42] was > 100 µM (inactive), the GI50 [62] was 76.7 µM (inactive) and the GI50 [63] was 45.8 µM (inactive). For the same molecule, the GI50 [43] was 14.2 µM (inactive), the GI50 [45] was 47.8 µM (inactive) and the GI50 [46] was > 100 µM (inactive). The GI50 [47] was 71.6 µM (inactive), the GI50 [48] was 55.8 µM (inactive) and the GI50 [49] was 21.5 µM (inactive). The GI50 [50] was 22.4 µM (inactive) and the GI50 [51] was > 100 µM (inactive).
